Data taken from ChEMBL document CHEMBL1201862, “PubChem BioAssay data set” (2004).
The source made the active and inactive calls.

Legend:
[1] = biological target: Peroxisome proliferator-activated receptor gamma/Nuclear receptor coactivator 1 (Homo sapiens, UniProt P37231); test: TR-FRET dose response biochemical High Throughput Screening assay for agonists of the steroid receptor coactivator 1 (SRC-1) recruitment by the peroxisome proliferator-activated receptor gamma (PPAR gamma): non-selective agonists. [Related pubchem assays (depositor defined):AID1300, AID1808, AID504735, AID631]; type: protein assay
[2] = system: HeLa; test: Cytotoxicity counterscreen assay for transcriptional activators of heat shock protein 70 (Hsp70). [Related pubchem assays: 1203, 1252 ]; type: functional; conditions: Homo sapiens;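 also: cells exposed to compound for 16 hours before readout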
[3] = loss of viability in HepG2 cells – cell-based, CellTiter-Glo, cherry-picked, cytotoxicity control for Shn3 inhibitor project, dose response (AID 624134); type: functional
[4] = non-specific 3'UTR reporter inhibition in Clone20-Shn3RL – cell-based, Renilla luciferase, cherry-picked, counter-screen for Shn3 inhibitor project, dose response (AID 624133); type: functional
[5] = biological target: Peroxisome proliferator-activated receptor gamma/Nuclear receptor coactivator 2 (Homo sapiens, UniProt P37231); test: (§1) TR-FRET dose response biochemical High Throughput Screening assay for agonists of the steroid receptor coactivator 2 (SRC-2) recruitment by the peroxisome proliferator-activated receptor gamma (PPAR gamma): non-selective agonists. [Related pubchem assays: 1297, 1032 ]; type: functional
[6] = biological target: Paired box protein Pax-8 (Homo sapiens, UniProt Q06710); test: PAX8 transcriptional activity inhibition in RMG-I – RMG-I cells, luciferase, cherry-pick, dose response (AID 687027); type: functional, cell-based;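 also: luciferase reporter driven by Pax8 target thyroperoxidase promoter measured by SteadyGlo luminescence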
Paired box protein Pax-8, sequence (Q06710 whole entry): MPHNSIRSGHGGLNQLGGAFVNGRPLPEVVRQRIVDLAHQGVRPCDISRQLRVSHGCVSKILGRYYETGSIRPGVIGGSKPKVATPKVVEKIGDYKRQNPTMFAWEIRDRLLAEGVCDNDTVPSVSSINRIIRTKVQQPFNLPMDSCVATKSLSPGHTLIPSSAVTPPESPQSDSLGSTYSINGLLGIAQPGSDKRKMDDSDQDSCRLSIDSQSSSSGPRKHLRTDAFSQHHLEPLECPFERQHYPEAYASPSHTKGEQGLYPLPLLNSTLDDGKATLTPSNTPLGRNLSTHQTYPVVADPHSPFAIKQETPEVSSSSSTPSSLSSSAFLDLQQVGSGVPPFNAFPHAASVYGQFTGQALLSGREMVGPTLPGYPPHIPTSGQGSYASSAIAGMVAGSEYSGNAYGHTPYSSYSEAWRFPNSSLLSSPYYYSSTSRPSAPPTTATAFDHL

[7] = reduction of Shn3 3'UTR-driven luciferase in osteoblasts – cell-based, Clone20 osteoblasts, firefly luciferase, cherry-picked, dose response (AID 624132); type: functional;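 also: firefly luciferase luminescence from reporter carrying the Shn3 3'UTR in osteoblasts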
[8] = general cell-killing toxicity readout – plate reader, dry powder samples, cytotoxicity control for PAX8 inhibitor project, dose response (AID 743021); type: functional, cell-based
[9] = biological target: Peroxisome proliferator-activated receptor gamma/Nuclear receptor coactivator 3 (Homo sapiens, UniProt P37231); test: as §1, with “3 (SRC-3)” for “2 (SRC-2)”, “1301 (Confirmation screen.), 1048 (Primary screen.)]” for “1297, 1032 ]”; type: functional
[10] = HEK-293T viability loss after treatment – luminescence, T-cell screen hits, cytotoxicity control for TCR NF-kB inhibitor project, dose response (AID 489026); type: functional, cell-based;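 also: cells exposed to compound about 14 hours before the viability readout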
[11] = T. cruzi infection blockers in NIH3T3 cells – beta-gal luminescence, NIH3T3 host cells, confirmation (AID 2630); type: functional, cell-based; conditions: Mus musculus
[12] = cells; type: functional
[13] = Trypanosoma cruzi growth suppression in host cells – NIH3T3 host cells, beta-gal luminescence, confirmation (AID 2044); type: functional, cell-based;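 also: intracellular parasites grown in NIH/3T3 mouse fibroblasts as host cells; luminescent beta-galactosidase reporter signal from transgenic T. cruzi replicating inside host cells; inhibitors lower the luminescence signal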
[14] = Luminescence Cell-Based/Microorganism Confirmation at Dose of Inhibitors of Trypanosoma cruzi Infection. [Related pubchem assays: 1885, 1968 ]; type: functional
[15] = Luminescence Cell-Based Secondary HTS screen to identify cytotoxic compounds of NIH3T3 cells. [Related pubchem assays: 1885, 1968 ]; type: functional
[16] = NIH3T3 cell viability loss – ATP luminescence, mouse fibroblasts, counter-screen, dose response (AID 2010); type: functional, cell-based;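 also: cells exposed to compound for about 90 hours before reading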
[17] = biological target: T1, Alkaline phosphatase, tissue-nonspecific isozyme (Homo sapiens, UniProt P05186); test: TNAP enzyme inhibition by screening hits, dose response, selectivity assay for mouse IAP inhibitor project, biochemical, human TNAP, uHTS hits (AID 488906); type: functional
T1 sequence (P05186 whole entry): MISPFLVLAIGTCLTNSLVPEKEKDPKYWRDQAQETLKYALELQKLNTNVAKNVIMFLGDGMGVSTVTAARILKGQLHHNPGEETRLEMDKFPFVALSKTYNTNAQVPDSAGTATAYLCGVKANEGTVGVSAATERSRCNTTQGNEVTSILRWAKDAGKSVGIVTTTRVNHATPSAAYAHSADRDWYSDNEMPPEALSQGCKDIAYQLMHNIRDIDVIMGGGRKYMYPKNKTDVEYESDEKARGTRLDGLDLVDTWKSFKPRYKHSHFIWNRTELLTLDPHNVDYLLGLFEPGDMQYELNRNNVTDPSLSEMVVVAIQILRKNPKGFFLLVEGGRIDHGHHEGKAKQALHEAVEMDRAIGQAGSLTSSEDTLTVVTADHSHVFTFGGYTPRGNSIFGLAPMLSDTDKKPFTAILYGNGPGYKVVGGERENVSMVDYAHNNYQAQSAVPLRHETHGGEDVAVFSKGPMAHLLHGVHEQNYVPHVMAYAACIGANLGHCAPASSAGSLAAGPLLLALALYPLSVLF

[18] = biological target: Intestinal-type alkaline phosphatase (Homo sapiens, UniProt P09923); test: inhibition of human intestinal alkaline phosphatase – biochemical, dose response (AID 488876); type: functional
Intestinal-type alkaline phosphatase (Homo sapiens, UniProt P09923), sequence (P09923 whole entry): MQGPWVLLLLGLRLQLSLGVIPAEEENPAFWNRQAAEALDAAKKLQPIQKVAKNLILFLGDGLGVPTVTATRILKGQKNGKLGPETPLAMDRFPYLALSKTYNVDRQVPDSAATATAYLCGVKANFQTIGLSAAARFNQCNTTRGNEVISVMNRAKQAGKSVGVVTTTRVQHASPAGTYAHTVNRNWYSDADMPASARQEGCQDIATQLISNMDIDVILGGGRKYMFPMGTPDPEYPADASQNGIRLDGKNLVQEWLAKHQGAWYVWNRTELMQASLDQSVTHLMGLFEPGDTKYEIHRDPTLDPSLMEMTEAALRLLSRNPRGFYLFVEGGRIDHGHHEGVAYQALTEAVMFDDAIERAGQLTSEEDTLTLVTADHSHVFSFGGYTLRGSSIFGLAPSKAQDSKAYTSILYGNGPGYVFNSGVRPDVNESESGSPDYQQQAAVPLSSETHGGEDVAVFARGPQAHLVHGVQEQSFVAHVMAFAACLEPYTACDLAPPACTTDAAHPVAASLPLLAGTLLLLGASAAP

[19] = biological target: Intestinal-type alkaline phosphatase (Mus musculus, UniProt P24822); test: PubChem AID 488785; type: functional
Intestinal-type alkaline phosphatase (Mus musculus, UniProt P24822), sequence (P24822 whole entry): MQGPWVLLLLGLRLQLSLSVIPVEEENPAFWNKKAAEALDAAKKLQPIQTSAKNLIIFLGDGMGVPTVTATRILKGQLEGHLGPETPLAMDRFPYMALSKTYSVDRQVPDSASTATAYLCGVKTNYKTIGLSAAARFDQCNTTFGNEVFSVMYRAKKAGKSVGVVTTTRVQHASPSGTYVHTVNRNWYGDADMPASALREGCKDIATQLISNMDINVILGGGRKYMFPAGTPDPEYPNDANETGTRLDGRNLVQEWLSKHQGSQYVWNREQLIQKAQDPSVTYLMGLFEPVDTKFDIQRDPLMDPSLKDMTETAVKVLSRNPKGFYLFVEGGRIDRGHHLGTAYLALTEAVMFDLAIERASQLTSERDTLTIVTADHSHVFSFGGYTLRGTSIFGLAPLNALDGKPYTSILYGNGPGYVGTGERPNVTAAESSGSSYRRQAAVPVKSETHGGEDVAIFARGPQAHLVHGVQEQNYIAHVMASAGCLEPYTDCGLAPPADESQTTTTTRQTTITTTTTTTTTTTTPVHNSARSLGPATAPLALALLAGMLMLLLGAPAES

[20] = biological target: T2, Voltage-gated N-type calcium channel alpha-1B subunit/Amyloid beta A4 precursor protein-binding family A member 1 (Homo sapiens, UniProt Q00975+Q02410); type: protein assay
T2 sequence (Q00975 whole entry): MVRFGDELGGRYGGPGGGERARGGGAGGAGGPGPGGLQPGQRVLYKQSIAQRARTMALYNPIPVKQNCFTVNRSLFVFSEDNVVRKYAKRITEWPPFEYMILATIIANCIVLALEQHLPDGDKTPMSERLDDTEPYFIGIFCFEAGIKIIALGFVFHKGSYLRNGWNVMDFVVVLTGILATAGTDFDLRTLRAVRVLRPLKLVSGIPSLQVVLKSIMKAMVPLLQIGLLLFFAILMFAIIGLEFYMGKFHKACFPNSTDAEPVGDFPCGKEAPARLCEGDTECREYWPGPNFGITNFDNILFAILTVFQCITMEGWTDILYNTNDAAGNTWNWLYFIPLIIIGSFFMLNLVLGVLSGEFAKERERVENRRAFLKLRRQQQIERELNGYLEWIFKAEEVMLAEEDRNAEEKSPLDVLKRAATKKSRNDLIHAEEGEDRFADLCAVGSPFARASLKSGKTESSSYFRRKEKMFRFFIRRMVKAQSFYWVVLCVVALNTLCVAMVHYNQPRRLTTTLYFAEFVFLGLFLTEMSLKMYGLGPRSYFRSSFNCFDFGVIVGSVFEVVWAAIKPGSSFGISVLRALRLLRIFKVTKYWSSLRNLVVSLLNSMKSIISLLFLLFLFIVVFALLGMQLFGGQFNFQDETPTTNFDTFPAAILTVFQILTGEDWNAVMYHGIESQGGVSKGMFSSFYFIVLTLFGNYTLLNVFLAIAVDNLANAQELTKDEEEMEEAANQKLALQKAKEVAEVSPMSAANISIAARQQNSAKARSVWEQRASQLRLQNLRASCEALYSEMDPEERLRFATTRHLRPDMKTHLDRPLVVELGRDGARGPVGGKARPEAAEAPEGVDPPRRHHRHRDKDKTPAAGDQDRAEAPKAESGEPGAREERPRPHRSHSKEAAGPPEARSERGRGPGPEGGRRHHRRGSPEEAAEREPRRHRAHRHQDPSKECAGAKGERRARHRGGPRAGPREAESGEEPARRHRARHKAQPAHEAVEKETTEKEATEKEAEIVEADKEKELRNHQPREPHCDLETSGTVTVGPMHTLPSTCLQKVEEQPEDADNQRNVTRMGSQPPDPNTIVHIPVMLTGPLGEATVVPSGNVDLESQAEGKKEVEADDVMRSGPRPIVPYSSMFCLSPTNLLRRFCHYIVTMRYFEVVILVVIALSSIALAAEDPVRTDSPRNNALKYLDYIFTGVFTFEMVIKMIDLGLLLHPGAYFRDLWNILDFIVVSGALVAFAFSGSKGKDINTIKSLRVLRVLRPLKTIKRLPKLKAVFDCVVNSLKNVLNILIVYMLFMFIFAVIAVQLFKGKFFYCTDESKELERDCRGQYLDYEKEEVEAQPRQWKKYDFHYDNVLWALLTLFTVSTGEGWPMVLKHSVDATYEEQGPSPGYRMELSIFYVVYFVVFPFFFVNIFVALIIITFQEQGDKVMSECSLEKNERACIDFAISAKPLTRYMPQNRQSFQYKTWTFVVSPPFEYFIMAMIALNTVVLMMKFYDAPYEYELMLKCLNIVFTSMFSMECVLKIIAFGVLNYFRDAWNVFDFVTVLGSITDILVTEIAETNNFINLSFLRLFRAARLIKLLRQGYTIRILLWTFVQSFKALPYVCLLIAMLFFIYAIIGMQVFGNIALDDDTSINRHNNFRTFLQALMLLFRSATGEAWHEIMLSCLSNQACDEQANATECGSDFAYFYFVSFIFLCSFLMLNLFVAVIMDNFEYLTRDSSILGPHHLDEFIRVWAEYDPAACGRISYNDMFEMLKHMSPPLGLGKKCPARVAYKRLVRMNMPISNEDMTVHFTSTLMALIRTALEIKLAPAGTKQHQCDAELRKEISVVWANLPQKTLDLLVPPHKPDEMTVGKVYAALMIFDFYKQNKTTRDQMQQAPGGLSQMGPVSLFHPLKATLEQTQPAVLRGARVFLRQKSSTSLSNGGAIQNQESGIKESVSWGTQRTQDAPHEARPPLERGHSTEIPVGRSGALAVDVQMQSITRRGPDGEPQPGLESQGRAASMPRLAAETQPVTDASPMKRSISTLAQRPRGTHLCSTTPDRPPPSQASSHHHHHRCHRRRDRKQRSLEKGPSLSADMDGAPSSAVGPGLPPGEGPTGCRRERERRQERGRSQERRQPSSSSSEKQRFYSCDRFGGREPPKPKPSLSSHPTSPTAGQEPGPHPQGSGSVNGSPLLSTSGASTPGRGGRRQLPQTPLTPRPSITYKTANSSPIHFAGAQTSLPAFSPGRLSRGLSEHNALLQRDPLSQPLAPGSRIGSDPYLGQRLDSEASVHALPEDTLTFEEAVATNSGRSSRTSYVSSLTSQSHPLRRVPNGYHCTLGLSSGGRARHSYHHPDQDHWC
T2 sequence (Q02410 whole entry): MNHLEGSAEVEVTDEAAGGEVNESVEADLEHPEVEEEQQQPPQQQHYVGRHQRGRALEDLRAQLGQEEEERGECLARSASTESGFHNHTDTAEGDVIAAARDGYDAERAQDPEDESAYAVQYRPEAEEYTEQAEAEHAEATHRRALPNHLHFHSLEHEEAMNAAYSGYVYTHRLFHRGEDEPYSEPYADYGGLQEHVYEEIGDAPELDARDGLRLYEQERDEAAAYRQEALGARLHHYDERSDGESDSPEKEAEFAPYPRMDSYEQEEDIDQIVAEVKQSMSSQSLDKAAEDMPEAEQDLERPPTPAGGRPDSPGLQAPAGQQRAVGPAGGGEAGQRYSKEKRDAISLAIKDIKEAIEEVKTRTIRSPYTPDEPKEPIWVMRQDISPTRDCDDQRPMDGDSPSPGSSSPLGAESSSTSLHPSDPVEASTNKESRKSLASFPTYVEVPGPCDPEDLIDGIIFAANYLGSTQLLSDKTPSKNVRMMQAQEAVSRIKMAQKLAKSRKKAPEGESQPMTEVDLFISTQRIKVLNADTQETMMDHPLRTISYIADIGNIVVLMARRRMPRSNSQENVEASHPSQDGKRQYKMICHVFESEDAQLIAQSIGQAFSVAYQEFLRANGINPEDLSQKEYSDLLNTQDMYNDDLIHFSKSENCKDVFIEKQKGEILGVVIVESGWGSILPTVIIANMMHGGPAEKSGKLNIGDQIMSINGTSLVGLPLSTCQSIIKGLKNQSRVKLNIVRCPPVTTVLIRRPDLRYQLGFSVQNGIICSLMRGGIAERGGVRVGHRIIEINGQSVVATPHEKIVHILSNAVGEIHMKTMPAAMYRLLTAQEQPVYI

[21] = biological target: T3, Short transient receptor potential channel 4 (Mus musculus, UniProt Q9QUQ5); test: block of DAMGO-driven TRPC4 calcium entry – cell-based, HEK293 TRPC4/mu-opioid, Fluo-4 calcium, dose response (AID 434942); type: functional;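 also: potency of inhibitors blocking the TRPC4 calcium response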
T3 sequence (Q9QUQ5 whole entry): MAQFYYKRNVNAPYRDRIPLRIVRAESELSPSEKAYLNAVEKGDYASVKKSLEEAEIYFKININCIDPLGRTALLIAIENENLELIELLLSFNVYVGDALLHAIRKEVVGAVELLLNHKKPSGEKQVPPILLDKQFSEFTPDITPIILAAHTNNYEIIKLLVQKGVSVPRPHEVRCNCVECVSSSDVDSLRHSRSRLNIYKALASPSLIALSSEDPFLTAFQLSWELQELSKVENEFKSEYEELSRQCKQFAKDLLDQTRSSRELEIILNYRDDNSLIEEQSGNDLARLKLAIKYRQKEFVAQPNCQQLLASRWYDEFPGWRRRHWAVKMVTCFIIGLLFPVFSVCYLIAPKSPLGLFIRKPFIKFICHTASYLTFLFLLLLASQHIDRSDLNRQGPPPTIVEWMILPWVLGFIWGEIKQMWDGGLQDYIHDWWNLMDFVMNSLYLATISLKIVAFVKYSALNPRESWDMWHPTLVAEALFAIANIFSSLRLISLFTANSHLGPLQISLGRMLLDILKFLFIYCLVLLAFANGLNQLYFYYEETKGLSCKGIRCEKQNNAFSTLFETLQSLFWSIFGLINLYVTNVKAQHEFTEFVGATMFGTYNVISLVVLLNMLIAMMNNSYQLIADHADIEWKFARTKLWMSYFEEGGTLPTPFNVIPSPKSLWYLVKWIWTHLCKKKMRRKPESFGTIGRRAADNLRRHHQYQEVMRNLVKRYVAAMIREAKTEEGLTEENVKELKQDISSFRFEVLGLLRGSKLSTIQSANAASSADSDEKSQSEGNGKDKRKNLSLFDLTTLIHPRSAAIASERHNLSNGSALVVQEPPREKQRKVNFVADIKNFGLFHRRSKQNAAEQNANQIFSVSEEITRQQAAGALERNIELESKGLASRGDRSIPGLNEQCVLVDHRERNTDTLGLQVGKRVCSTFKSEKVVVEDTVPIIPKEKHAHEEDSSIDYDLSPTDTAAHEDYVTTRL

[22] = biological target: T2, Voltage-gated N-type calcium channel alpha-1B subunit/Amyloid beta A4 precursor protein-binding family A member 1; type: protein assay; remark: listed apart in the source

Question: Which EC50 [1] does the source give for `O=c1c(Br)c(Br)cnn1-c1ccccc1` here?
Answer: Its EC50 is > 79.4 µM (inactive).

Question: And the CC50 [2]?
Answer: The CC50 was > 11 µM (not active).

Question: What about the AC50 [3] of the same compound?
Answer: Its AC50 is 25.4 µM (active).

Question: What about the AC50 [4] of the same compound?
Answer: Its AC50 is 2.75 µM (active).

Question: What about the EC50 [5] of the same compound?
Answer: Its EC50 is > 79.4 µM (not active).

Question: What about the AC50 [6] of the same compound?
Answer: Its AC50 is 8.26 µM (active).

Question: What about the AC50 [7] of the same compound?
Answer: The AC50 was 1.82 µM (active).

Question: And the AC50 [8]?
Answer: The AC50 was 14.8 µM (active).

Question: What about the EC50 [9] of the same compound?
Answer: Its EC50 is > 79.4 µM (not active).

Question: For `CCO[C@H]1OC(C(=O)NCc2nc3ccccc3[nH]2)=C[C@@H](C2CC2)[C@@H]1CCCO`, which IC50 [10] is on record?
Answer: The IC50 was > 80 µM (inactive).

Question: Which results are given for `CC(C)(C)OC(=O)N/N=C\c1ccc([N+](=O)[O-])s1`?
Answer: EC50 [11]: 2.46 µM (active); IC50 [12]: 27.3 µM (active); EC50 [13]: 2.7 µM (active); EC50 [14]: 2.46 µM (active); EC50 [15]: > 195 µM (not active); EC50 [16]: > 60 µM (not active)

Question: Which results are given for `O=S(=O)(c1ccc2nc(O)oc2c1)N1CCCCC1`?
Answer: IC50 [17]: 36.5 µM (active); IC50 [18]: > 100 µM (inactive); IC50 [19]: 1.67 µM (active)

Question: Which IC50 [20] does the source give for `Cc1ccn2c(-c3csc(NCc4ccco4)n3)c(C)nc2c1` here?
Answer: The IC50 was > 50 µM (inactive).

Question: What about the EC50 [21] of the same compound?
Answer: The EC50 was 1.5 µM (active).

Question: And the IC50 [22]?
Answer: The IC50 was 8.87 µM (active).
